Assays:
Assay type in all cases: biochemical
Mer(h) = Mer(h) (Homo sapiens (Human), UniProt Q12866); experiment: KinaseProfiler panel; parameters: dose or concentration left out as unconfirmed; settings: activity remaining
HIPK3(h) = HIPK3(h) (Homo sapiens (Human), UniProt Q9H422); experiment: KinaseProfiler panel; parameters: dose or concentration left out as unconfirmed; settings: activity remaining
AAK1 = AAK1 (Homo sapiens (Human), UniProt Q2M2I8); experiment: KinaseProfiler radiometric assay (16-043KP); settings: mean of at least two independent experiments
Sequence of AAK1 (Q2M2I8 whole entry): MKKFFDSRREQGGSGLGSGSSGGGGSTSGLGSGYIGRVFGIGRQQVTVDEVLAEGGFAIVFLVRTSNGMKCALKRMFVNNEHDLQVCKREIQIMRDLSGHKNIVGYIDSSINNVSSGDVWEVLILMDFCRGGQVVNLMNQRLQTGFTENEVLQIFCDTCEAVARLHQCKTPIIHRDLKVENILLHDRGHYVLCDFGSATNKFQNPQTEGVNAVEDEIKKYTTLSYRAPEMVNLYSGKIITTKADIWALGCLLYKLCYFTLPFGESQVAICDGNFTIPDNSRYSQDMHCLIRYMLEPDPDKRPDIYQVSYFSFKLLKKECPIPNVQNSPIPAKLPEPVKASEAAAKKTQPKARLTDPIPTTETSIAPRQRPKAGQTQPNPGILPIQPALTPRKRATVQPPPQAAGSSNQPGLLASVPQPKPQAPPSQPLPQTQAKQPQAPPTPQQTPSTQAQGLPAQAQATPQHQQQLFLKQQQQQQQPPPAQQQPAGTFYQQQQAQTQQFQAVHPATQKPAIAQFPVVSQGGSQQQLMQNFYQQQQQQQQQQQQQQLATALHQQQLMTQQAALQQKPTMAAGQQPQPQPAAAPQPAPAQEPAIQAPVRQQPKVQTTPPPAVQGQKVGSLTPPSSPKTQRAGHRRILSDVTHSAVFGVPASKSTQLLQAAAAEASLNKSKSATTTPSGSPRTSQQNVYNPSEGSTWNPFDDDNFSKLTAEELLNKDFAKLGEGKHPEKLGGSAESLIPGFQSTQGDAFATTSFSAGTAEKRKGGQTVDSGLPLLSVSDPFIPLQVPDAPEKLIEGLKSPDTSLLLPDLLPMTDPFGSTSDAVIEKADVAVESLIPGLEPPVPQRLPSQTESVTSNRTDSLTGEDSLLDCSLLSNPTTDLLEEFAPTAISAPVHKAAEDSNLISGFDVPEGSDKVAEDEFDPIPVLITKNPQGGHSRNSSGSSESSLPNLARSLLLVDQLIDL
Text: (§1) In another aspect, disclosed is a method of inhibiting citron kinase in a sample, comprising contacting the sample with a compound described herein (e.g., a compound of formula (I) or a pharmaceutically acceptable salt thereof), or a pharmaceutical composition described herein (e.g., a pharmaceutical composition comprising a compound of formula (I) or a pharmaceutically acceptable salt thereof), in an amount effective to inhibit citron kinase. In some embodiments, the step of contacting the sample with the compound comprises administering the compound to a subject (e.g., a subject) suffering from cancer. Methods of determining kinase inhibition are well known in the art. For example, kinase activity of an enzyme and the inhibitory capacity of a test compound can be determined by measuring enzyme specific phosphorylation of a substrate. Commercial assays and kits can be employed. For example, kinase inhibition can be determined using a radiometric binding assay, such as using KinaseProfiler™ technology (Eurofins Discovery). This assay method directly detects product formation without the use of modified substrates or coupling enzymes. […]
(§2) The effect of various compounds on the inhibition of other kinases has also been determined. Table 2 reports measured IC50 values; value units are nanomolar inhibition.

MSK1(h) = MSK1(h) (Homo sapiens (Human), UniProt O75582); experiment: KinaseProfiler panel; parameters: dose or concentration left out as unconfirmed; settings: activity remaining
[1] = target: PI3 Kinase (p110b/p85a)(h) (Homo sapiens (Human), UniProt P42338); experiment: KinaseProfiler panel; parameters: dose or concentration left out as unconfirmed; settings: activity remaining
Fer(h) = Fer(h) (Homo sapiens (Human), UniProt P16591); experiment: KinaseProfiler panel; parameters: dose or concentration left out as unconfirmed; settings: activity remaining
GRK1(h) = GRK1(h) (Homo sapiens (Human), UniProt Q15835); experiment: KinaseProfiler panel; parameters: dose or concentration left out as unconfirmed; settings: activity remaining
HIPK4 = HIPK4 (Homo sapiens (Human), UniProt Q8NE63); experiment: KinaseProfiler radiometric assay (15-003KP); settings: mean of at least two independent experiments
Text: as §1, §2

GCN2(h) = GCN2(h) (Homo sapiens (Human), UniProt Q9P2K8); experiment: KinaseProfiler panel; parameters: dose or concentration left out as unconfirmed; settings: activity remaining
Sequence of GCN2(h) (Q9P2K8 whole entry): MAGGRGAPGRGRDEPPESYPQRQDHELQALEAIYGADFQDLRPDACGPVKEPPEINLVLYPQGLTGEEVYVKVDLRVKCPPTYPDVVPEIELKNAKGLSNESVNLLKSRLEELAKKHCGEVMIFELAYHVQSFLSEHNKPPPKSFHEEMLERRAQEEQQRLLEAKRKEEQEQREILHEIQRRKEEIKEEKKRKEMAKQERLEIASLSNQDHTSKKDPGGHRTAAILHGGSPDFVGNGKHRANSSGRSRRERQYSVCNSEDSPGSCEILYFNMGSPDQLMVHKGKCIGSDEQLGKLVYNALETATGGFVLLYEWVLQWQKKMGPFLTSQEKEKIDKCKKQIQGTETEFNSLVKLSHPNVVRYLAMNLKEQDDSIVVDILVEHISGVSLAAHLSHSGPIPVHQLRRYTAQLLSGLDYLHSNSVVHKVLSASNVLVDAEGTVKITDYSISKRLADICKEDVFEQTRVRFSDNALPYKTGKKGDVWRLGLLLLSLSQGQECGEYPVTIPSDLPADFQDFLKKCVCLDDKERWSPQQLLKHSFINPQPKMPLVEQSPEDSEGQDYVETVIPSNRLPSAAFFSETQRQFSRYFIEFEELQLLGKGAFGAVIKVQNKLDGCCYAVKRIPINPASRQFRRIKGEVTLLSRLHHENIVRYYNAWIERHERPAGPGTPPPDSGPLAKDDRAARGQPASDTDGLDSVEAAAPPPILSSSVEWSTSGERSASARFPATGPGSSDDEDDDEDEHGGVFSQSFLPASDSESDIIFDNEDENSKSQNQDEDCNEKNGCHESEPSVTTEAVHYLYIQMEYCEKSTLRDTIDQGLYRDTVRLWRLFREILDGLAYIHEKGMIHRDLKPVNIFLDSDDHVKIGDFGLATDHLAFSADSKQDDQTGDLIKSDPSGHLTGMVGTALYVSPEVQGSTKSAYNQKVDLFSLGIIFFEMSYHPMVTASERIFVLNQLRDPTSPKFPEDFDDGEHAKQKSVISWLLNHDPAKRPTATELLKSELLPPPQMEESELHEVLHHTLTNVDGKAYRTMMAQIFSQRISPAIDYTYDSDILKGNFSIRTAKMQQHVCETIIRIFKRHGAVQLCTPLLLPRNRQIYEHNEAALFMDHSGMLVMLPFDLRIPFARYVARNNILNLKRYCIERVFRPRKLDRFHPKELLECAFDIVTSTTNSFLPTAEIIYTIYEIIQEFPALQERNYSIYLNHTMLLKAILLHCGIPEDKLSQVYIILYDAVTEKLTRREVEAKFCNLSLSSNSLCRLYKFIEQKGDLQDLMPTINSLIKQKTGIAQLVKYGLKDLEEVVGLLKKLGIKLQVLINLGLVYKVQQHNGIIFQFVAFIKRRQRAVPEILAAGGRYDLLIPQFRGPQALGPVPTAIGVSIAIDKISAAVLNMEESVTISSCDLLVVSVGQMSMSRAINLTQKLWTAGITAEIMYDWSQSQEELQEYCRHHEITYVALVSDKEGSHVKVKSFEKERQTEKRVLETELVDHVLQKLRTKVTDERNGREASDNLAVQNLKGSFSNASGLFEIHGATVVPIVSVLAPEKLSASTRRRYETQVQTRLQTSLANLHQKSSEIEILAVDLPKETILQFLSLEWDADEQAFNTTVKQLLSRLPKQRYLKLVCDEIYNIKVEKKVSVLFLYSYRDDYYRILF

CDK2/cyclinA(h) = CDK2/cyclinA(h) (Homo sapiens (Human), UniProt P24941); experiment: KinaseProfiler panel; parameters: dose or concentration left out as unconfirmed; settings: activity remaining
MAPK2(h) = MAPK2(h) (Homo sapiens (Human), UniProt P28482); experiment: KinaseProfiler panel; parameters: dose or concentration left out as unconfirmed; settings: activity remaining
CDKL3(h) = CDKL3(h) (Homo sapiens (Human), UniProt Q8IVW4); experiment: KinaseProfiler panel; parameters: dose or concentration left out as unconfirmed; settings: activity remaining
PKCδ(h) = PKCδ(h) (Homo sapiens (Human), UniProt Q05655); experiment: KinaseProfiler panel; parameters: dose or concentration left out as unconfirmed; settings: activity remaining
PDHK2(h) = PDHK2(h) (Homo sapiens (Human), UniProt Q15119); experiment: KinaseProfiler panel; parameters: dose or concentration left out as unconfirmed; settings: activity remaining
AMPKα1(h) = AMPKα1(h) (Homo sapiens (Human), UniProt Q13131); experiment: KinaseProfiler panel; parameters: dose or concentration left out as unconfirmed; settings: activity remaining
ALK4(h) = ALK4(h) (Homo sapiens (Human), UniProt P36896); experiment: KinaseProfiler panel; parameters: dose or concentration left out as unconfirmed; settings: activity remaining
Itk(h) = Itk(h) (Homo sapiens (Human), UniProt Q08881); experiment: KinaseProfiler panel; parameters: dose or concentration left out as unconfirmed; settings: activity remaining
ARK5(h) = ARK5(h) (Homo sapiens (Human), UniProt O60285); experiment: KinaseProfiler panel; parameters: dose or concentration left out as unconfirmed; settings: activity remaining
ULK2(h) = ULK2(h) (Homo sapiens (Human), UniProt Q8IYT8); experiment: KinaseProfiler panel; parameters: dose or concentration left out as unconfirmed; settings: activity remaining
MKK3(h) = MKK3(h) (Homo sapiens (Human), UniProt P46734); experiment: KinaseProfiler panel; parameters: dose or concentration left out as unconfirmed; settings: activity remaining
CK1γ2(h) = CK1γ2(h) (Homo sapiens (Human), UniProt P78368); experiment: KinaseProfiler panel; parameters: dose or concentration left out as unconfirmed; settings: activity remaining
PKCε(h) = PKCε(h) (Homo sapiens (Human), UniProt Q02156); experiment: KinaseProfiler panel; parameters: dose or concentration left out as unconfirmed; settings: activity remaining
LATS1(h) = LATS1(h) (Homo sapiens (Human), UniProt O95835); experiment: KinaseProfiler panel; parameters: dose or concentration left out as unconfirmed; settings: activity remaining
Abl(h) = Abl(h) (Homo sapiens (Human), UniProt P00519); experiment: KinaseProfiler panel; parameters: dose or concentration left out as unconfirmed; settings: activity remaining
IR(h), activated = IR(h), activated (Homo sapiens (Human), UniProt P06213); experiment: KinaseProfiler panel; parameters: dose or concentration left out as unconfirmed; settings: activity remaining
HIPK2(h) = HIPK2(h) (Homo sapiens (Human), UniProt Q9H2X6); experiment: KinaseProfiler panel; parameters: dose or concentration left out as unconfirmed; settings: activity remaining
Sequence of HIPK2(h) (Q9H2X6 whole entry): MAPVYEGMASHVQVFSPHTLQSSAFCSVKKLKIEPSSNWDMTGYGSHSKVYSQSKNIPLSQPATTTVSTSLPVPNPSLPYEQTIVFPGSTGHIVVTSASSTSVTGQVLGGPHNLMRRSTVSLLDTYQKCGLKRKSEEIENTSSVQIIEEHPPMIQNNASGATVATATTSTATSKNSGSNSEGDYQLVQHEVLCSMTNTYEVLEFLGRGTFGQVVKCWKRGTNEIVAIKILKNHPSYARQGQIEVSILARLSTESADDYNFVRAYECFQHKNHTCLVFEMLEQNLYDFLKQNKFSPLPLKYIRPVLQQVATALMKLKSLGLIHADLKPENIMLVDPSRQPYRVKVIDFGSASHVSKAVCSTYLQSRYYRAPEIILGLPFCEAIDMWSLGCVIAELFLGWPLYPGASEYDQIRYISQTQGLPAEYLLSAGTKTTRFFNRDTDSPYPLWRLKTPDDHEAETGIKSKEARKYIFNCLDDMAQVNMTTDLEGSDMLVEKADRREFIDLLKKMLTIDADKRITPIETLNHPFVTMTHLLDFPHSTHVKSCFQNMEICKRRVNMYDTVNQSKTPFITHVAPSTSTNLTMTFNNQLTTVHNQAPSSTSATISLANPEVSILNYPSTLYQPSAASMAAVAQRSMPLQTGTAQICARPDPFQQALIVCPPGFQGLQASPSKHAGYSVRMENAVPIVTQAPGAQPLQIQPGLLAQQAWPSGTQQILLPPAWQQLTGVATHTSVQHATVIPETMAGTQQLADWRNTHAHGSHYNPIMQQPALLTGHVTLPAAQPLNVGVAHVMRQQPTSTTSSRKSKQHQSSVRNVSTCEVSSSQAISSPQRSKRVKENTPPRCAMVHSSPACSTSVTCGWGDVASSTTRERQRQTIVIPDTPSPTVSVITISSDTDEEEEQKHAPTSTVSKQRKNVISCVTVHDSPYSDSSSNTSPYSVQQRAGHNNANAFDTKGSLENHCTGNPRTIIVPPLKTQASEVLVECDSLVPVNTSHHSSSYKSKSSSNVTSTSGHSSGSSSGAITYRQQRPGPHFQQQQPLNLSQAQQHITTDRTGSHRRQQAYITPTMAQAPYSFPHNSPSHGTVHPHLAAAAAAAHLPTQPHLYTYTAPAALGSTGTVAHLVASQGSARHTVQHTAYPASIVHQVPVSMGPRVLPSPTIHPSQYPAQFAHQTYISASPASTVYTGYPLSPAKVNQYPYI

Sequence of Mer(h) (Q12866 21-999): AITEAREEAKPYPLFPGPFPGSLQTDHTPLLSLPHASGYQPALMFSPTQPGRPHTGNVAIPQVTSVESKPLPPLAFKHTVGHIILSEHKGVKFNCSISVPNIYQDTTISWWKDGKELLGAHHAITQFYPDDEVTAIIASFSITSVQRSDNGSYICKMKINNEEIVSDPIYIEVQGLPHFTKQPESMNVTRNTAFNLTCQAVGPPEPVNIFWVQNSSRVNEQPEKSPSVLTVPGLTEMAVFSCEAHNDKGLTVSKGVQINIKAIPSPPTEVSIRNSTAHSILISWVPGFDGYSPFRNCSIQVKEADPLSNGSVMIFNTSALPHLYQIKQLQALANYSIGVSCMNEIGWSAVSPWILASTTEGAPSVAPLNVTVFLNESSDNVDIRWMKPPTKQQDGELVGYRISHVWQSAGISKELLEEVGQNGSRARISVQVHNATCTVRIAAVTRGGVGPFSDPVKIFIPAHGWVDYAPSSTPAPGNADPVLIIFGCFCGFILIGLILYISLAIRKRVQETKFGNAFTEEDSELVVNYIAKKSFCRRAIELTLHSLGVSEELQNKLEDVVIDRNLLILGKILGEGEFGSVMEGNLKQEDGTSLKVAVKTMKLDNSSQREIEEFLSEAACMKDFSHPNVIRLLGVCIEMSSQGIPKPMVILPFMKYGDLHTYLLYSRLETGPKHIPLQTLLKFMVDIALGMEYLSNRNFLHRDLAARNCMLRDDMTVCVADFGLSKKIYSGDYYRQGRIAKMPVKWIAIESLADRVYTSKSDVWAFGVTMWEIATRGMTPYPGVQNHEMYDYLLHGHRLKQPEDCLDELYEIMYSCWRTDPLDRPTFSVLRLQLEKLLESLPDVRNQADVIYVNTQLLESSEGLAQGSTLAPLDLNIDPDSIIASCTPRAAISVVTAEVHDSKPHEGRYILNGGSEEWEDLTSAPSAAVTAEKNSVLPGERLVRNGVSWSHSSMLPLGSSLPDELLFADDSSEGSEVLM

Cc1cc2c(-c3ccc(NC(=O)[C@H](N)CC(C)(C)C)cc3C)ccnc2[nH]1 [Compound F-90, (2R)-2-Amino-4,4-dimethyl-N-[3-methyl-4-(2-methyl-1H-pyrrolo[2,3-b]pyridin-4-yl)phenyl]pentanamide]
% Activity (Mer(h)): 105% | % Activity (HIPK3(h)): 85% | IC50 (AAK1): 212 nM | % Activity (MSK1(h)): 111% | % Activity [1]: 102% | % Activity (Fer(h)): 103% | % Activity (GRK1(h)): 86% | IC50 (HIPK4): 2280 nM | % Activity (GCN2(h)): 101% | % Activity (CDK2/cyclinA(h)): 87% | % Activity (MAPK2(h)): 109% | % Activity (CDKL3(h)): 79% | % Activity (PKCδ(h)): 93% | % Activity (PDHK2(h)): 87% | % Activity (AMPKα1(h)): 120% | % Activity (ALK4(h)): 94% | % Activity (Itk(h)): 86% | % Activity (ARK5(h)): 85% | % Activity (ULK2(h)): 98% | % Activity (MKK3(h)): 97% | % Activity (CK1γ2(h)): 97% | % Activity (PKCε(h)): 97% | % Activity (LATS1(h)): 90% | % Activity (Abl(h)): 99% | % Activity (IR(h), activated): 92% | % Activity (HIPK2(h)): 105%

Reference: patent US20250243196A1, “CITRON KINASE INHIBITORS” (The Cleveland Clinic Foundation, priority 2021, published 2025)
